According to US20250345351A1, “OLIGOSACCHARIDE COMPOSITIONS AND METHODS OF USE” (DSM NUTRITIONAL PRODUCTS, LLC, priority 2020, published 2025):

Assays:
[1] = tested on: fecal samples from ten healthy subjects; assay: Ex vivo fermentation of the selected oligosaccharide composition in the presence of mesalamine: SCFA by GC-FID (Example 23); format: cell-based, human; settings: 0.5, 2, 8, 32, 125, or 500 μM mesalamine with the composition
Protocol: 5-aminosalicilic acids (5-ASA), such as mesalamine, are standard-of-care compounds for the treatment of patients with mild-to-moderate ulcerative colitis. The ability of the selected oligosaccharide composition to support the growth of microbial taxa in the presence of […] determined. Fecal samples from ten healthy subjects were incubated anaerobically in supplemented Clostridium minimal medium without (negative control) or with the selected oligosaccharide composition. Samples with the selected oligosaccharide composition were also incubated with 0.0, 0.5, 2, 8, 32, 125, or 500 μM mesalamine. Each fecal sample incubation was performed with three biological replicates. After incubation, samples were sedimented by centrifugation and culture supernatants were collected for SCFA quantification by GC-FID.

[2] = tested on: fecal microbiome of healthy subjects; assay: Ex vivo fermentation in the presence of mesalamine: 16S rRNA amplicon sequencing, Bray-Curtis dissimilarity (Example 23); format: cell-based, human; settings: all 5-ASA concentrations tested; replicate sequencing dissimilarity 0.06 (S.D. 0.03)
Protocol: 5-aminosalicilic acids (5-ASA), such as mesalamine, are standard-of-care compounds for the treatment of patients with mild-to-moderate ulcerative colitis. The ability of the selected oligosaccharide composition to support the growth of microbial taxa in the presence of mesaline was determined. Fecal samples from ten healthy subjects were incubated anaerobically in supplemented Clostridium minimal medium without (negative control) or with the selected oligosaccharide composition. Samples with the selected oligosaccharide composition were also incubated with 0.0, 0.5, 2, 8, 32, 125, or 500 μM mesalamine. Each fecal sample incubation was performed with three biological replicates. After incubation, samples were sedimented by centrifugation and culture supernatants were collected for SCFA quantification by GC-FID.
To understand if mesalamine influenced understand the shifts in taxonomic composition produced by incubation with the selected oligosaccharide composition, the fecal samples were characterized by 16S rRNA amplicon seuquencing. Genomic DNA was extracted from fecal samples using DNeasy PowerSoil extraction plates (Qiagen) and quantified using the Quant-iT PicoGreen dsDNA assay (Invitrogen). 16S rRNA libraries were prepared by PCR amplification with the 515F/806R primer set before sequencing on the Illumina NextSeq platform to at least 25 thousand reads. […]

Nc1ccc(O)c(C(=O)O)c1 [mesalamine]
effect on SCFA production by the selected oligosaccharide composition [1]: none of the samples incubated with mesalamine showed any significant differences in SCFA production | mean Bray-Curtis dissimilarity to samples incubated with the composition and without mesalamine [2]: 0.06 (S.D. 0.02)
